These results are taken from the supplement of paper PMC10949913.

Common to all, as to assay: area under concentration-response curve (viability) (AUC (a.u.)); higher = less active
Settings in all cases: 48 h

The test system of one test is CU-ACC1. The gist of the method: (§1)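 Three adrenocortical carcinoma cell lines were plated in 1,536-well plates at 500–1,000 cells/well in 5 µL medium, and 23 nL of each library compound was added at 11 concentrations. After 48 h, CellTiter-Glo was applied for 15 minutes at room temperature before luminescence was read. Each plate's signals were normalised to vehicle and empty-well controls. AC50 and area under the curve were taken from fitted concentration-response curves, with only inhibitory or non-responding curve classes retained.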

Another test has as its system CU-ACC2. The gist of the method:
as §1

The next test concerns NCI-H295R. The gist of the method: as §1

Each structure is given as a SMILES string.

With `CCOC(=O)C(C)(C)Oc1ccc(Cl)cc1`, the “area under concentration-response curve” value with CU-ACC1 was 451; in the test with CU-ACC2, 453; with NCI-H295R, 444.

On to `OCCn1cc(-c2ccc3c(c2)CC/C3=N\O)c(-c2ccncc2)n1`, for which the “area under concentration-response curve” value in the test with CU-ACC1 stood at 492; in the test on CU-ACC2 it was 595; in the test with NCI-H295R, 538.

`COc1ccc([C@@H]2CNC(=O)C2)cc1OC1CCCC1`: the “area under concentration-response curve” value in the test with CU-ACC1 turned out to be 432; in the test with CU-ACC2, 457; with NCI-H295R, 516.

`CC(C)(C)[S+](=O)([O-])c1ccc2nccc(Nc3n[nH]c4ccc(F)cc34)c2c1`: the “area under concentration-response curve” value with CU-ACC1 was determined as 526; in the test on CU-ACC2, 627; in the test on NCI-H295R it was 561.

With `O=C(Cc1ccccc1)Nc1nnc(CCSCCc2nnc(NC(=O)Cc3ccccc3)s2)s1`, the “area under concentration-response curve” value stood at 509 with CU-ACC1, 532 with CU-ACC2 and 507 with NCI-H295R.

For the molecule `Cc1cccc(-c2n[nH]cc2-c2ccc3ncccc3n2)n1`, the “area under concentration-response curve” value stood at 468 in the test on CU-ACC1, 567 with CU-ACC2 and 524 in the test on NCI-H295R.

On to `O=C1NC(O)CCN1[C@@H]1O[C@H](CO)[C@@H](O)[C@H]1O` (stereo partly specified), for which the “area under concentration-response curve” value amounted to 539 in the test with CU-ACC1, 646 in the test with CU-ACC2 and 585 in the test on NCI-H295R.

`Nc1cc(c(cc1S(=O)(N)=O)S(N)(=O)=O)C(/Cl)=C(/Cl)Cl`: the “area under concentration-response curve” value came out at 505 in the test on CU-ACC1, 590 in the test with CU-ACC2 and 531 in the test with NCI-H295R.

`C[C@H](NC(=O)Cc1cc(F)cc(F)c1)C(=O)N[C@H](C(=O)OC(C)(C)C)c1ccccc1`: the “area under concentration-response curve” value worked out at 570 with CU-ACC1, 677 in the test on CU-ACC2 and 572 with NCI-H295R.

As to `CC(C)(C(=O)NCC(F)(F)C(F)(F)F)C(=O)N[C@@H]1C(=O)Nc2ccccc2-c2ccccc21`, the “area under concentration-response curve” value in the test on CU-ACC1 is 413; with CU-ACC2, 500; with NCI-H295R it was 459.

Take `COc1cc(SC)ccc1C(=O)N1CCC(Cc2ccccc2)CC1`: the “area under concentration-response curve” value in the test on CU-ACC1 was determined as 522; in the test on CU-ACC2, 501; in the test with NCI-H295R, 538.

Turning to `N#CCC1(n2cc(-c3ncnc4[nH]ccc34)cn2)CN(C2CCN(C(=O)c3ccnc(C(F)(F)F)c3F)CC2)C1`, the “area under concentration-response curve” value with CU-ACC1 turned out to be 460; in the test on CU-ACC2, 453; in the test on NCI-H295R, 508.

`Cc1cc(O)c2c(c1)C(=O)c1cc(O)cc(O)c1C2=O`: the “area under concentration-response curve” value in the test on CU-ACC1 came to 471; in the test on CU-ACC2, 521; with NCI-H295R it was 498.

With `Cc1nc[nH]c1CN1CCN(C(=O)N[C@@H](CC(C)C)C(=O)O)[C@@H](Cc2ccccc2)C1=O`, the “area under concentration-response curve” value worked out at 576 in the test with CU-ACC1, 621 in the test on CU-ACC2 and 545 in the test with NCI-H295R.

As to `CNC(=O)CN1CCC(Oc2cc3c(Nc4cccc(Cl)c4F)ncnc3cc2OC)CC1`, the “area under concentration-response curve” value with CU-ACC1 is 501; in the test with CU-ACC2 it was 572; in the test with NCI-H295R, 570.

As for `Cc1ccc([S+](=O)([O-])NC(=O)NN2CC3CCCC3C2)cc1` (stereo unspecified), the results for the “area under concentration-response curve” value in the test on CU-ACC1, in the test on CU-ACC2 and in the test with NCI-H295R were 537, 629 and 579, respectively.

`O=C1C[C@@H](c2ccc(O)cc2)Oc2cc(O)cc(O)c21`: the “area under concentration-response curve” value in the test with CU-ACC1 was 345; in the test on CU-ACC2, 484; in the test on NCI-H295R, 485.

As to `CCOC(=O)C/1=C(C)/NC(=S)NC1C2=CC=CC(=C2)O` (stereo unspecified), the “area under concentration-response curve” value with CU-ACC1 came to 498; with CU-ACC2, 545; in the test with NCI-H295R, 526.

In the case of `CN[C@H](CC(C)C)C(=O)N[C@H]1C(=O)N[C@@H](CC(N)=O)C(=O)N[C@H]2C(=O)N[C@H]3C(=O)N[C@H](C(=O)N[C@H](C(=O)O)c4cc(O)cc(O)c4-c4cc3ccc4O)[C@H](O)c3ccc(c(Cl)c3)Oc3cc2cc(c3O[C@@H]2O[C@H](CO)[C@@H](O)[C@H](O)[C@H]2O[C@H]2C[C@](C)(N)[C@H](O)[C@H](C)O2)Oc2ccc(cc2Cl)[C@H]1O`, the “area under concentration-response curve” value was 589 with CU-ACC1, 676 with CU-ACC2 and 614 with NCI-H295R.

On to `CN1CC(=O)\N=C1\NC(=O)NC2=CC(=CC=C2)Cl`, for which the “area under concentration-response curve” value stood at 497 with CU-ACC1, 566 with CU-ACC2 and 486 with NCI-H295R.

In the case of `COc1ccccc1OCC(O)CN1CCN(CC(=O)Nc2c(C)cccc2C)CC1` (stereo unspecified), the “area under concentration-response curve” value in the test on CU-ACC1 is 535; with CU-ACC2, 627; in the test with NCI-H295R, 569.

Take `C[C@@H](c1ccc2nccn2c1)n1nnc2ncc(-c3cnn(C)c3)nc21`: the “area under concentration-response curve” value in the test on CU-ACC1 amounted to 481; in the test on CU-ACC2 it was 582; in the test on NCI-H295R, 512.

For the molecule `C=C1[C@H](OC(=O)/C=C(\C)CC)C[C@@H](C(C)C)[C@@H]2[C@H]([C@@H](C)OC(C)=O)C(=O)C[C@@H]12`, the “area under concentration-response curve” value in the test with CU-ACC1 amounted to 527; in the test with CU-ACC2 it was 617; in the test with NCI-H295R it was 557.

`CN(C(=O)CNC(=O)/C=C/c1cccc(Cl)c1)C1CC[S+](=O)([O-])CC1` (stereo unspecified): the “area under concentration-response curve” value turned out to be 479 with CU-ACC1, 540 with CU-ACC2 and 465 in the test with NCI-H295R.

Regarding `CC(C)(C#N)c1cc(Cn2cncn2)cc(C(C)(C)C#N)c1`, the “area under concentration-response curve” value was found to be 461 with CU-ACC1, 574 in the test with CU-ACC2 and 537 in the test on NCI-H295R.

Consider `COC1=CC=C2[C@H]3CC[C@]4(C)[C@H](CC[C@H]4[C@@H]3CCC2=C1)NCCCCCCN5C(=O)\C=C/C5=O`, for which the “area under concentration-response curve” value in the test on CU-ACC1 amounted to 496; in the test on CU-ACC2, 460; in the test on NCI-H295R it was 517.

As for `CC1(C)[C@@H](O[C@H]2O[C@H](C(=O)O)[C@@H](O)[C@H](O)[C@H]2O[C@@H]2O[C@H](C(=O)O)[C@@H](O)[C@H](O)[C@H]2O)CC[C@]2(C)[C@H]3C(=O)C=C4[C@@H]5C[C@@](C)(C(=O)O)CC[C@]5(C)CC[C@@]4(C)[C@]3(C)CC[C@@H]12`, the “area under concentration-response curve” value turned out to be 541 in the test with CU-ACC1, 522 with CU-ACC2 and 567 in the test with NCI-H295R.

Turning to `CN[C@@H]1[C@H](O[C@H]2[C@H](O[C@@H]3[C@@H](O)[C@H](O)[C@@H](NC(=N)N)[C@H](O)[C@H]3NC(=N)N)O[C@@H](C)[C@]2(O)C=O)O[C@@H](CO)[C@H](O)[C@H]1O`, the “area under concentration-response curve” value turned out to be 516 in the test with CU-ACC1, 606 with CU-ACC2 and 553 in the test on NCI-H295R.

On to `C[C@H](CCC(=O)O)[C@H]1CCC2C3C[C@H](O)[C@@H]4C[C@H](O)CC[C@]4(C)C3CC[C@@]21C` (stereo partly specified), for which the “area under concentration-response curve” value was found to be 454 with CU-ACC1, 501 with CU-ACC2 and 470 with NCI-H295R.

As for `NC(=O)c1ncn([C@@H]2O[C@H](CO)[C@@H](O)[C@H]2O)c1N`, the “area under concentration-response curve” value with CU-ACC1 came out at 418; in the test with CU-ACC2, 519; in the test with NCI-H295R, 545.

Regarding `CC1(C)CC[C@@]2(CC[C@]3(C)\C(=C/C[C@@H]4[C@@]5(C)C[C@@H](O)[C@H](O)C(C)(C)[C@@H]5CC[C@@]34C)[C@@H]2C1)C(O)=O`, the figures for the “area under concentration-response curve” value in the test with CU-ACC1, with CU-ACC2 and with NCI-H295R were 478, 574 and 531, respectively.

Consider `O=NN(CCCl)C(=O)NCCCl`, for which the entries for the “area under concentration-response curve” value in the test on CU-ACC1, with CU-ACC2 and in the test on NCI-H295R were 454, 522 and 466, respectively.

On to `CO[C@H]1CC[C@H](N(c2cc(C3=CCCCC3)sc2C(=O)[O-])C(=O)[C@H]2CC[C@H](C)CC2)CC1`, for which the “area under concentration-response curve” value in the test with CU-ACC1 is 514; in the test on CU-ACC2, 613; with NCI-H295R, 573.

For `CC(C)C[C@@H](C(=O)N[C@H](C(=O)OC1CCCC1)c1ccccc1)[C@H](O)C(=O)NO`, the “area under concentration-response curve” value in the test with CU-ACC1 was found to be 463; with CU-ACC2, 551; with NCI-H295R it was 539.

For the molecule `COc1cc2ncnc(-n3nc(-c4ccccn4)nc3N)c2cc1OC`, the “area under concentration-response curve” value in the test on CU-ACC1 is 458; with CU-ACC2, 551; in the test on NCI-H295R it was 489.

`Cn1cc(-c2nc(N[C@@H]3CCCC[C@@H]3N)c(F)c3c2C(=O)NC3)cn1`: the “area under concentration-response curve” value in the test with CU-ACC1 worked out at 623; in the test with CU-ACC2, 719; in the test on NCI-H295R it was 660.

For `CC(C)N(CCCNC(=O)Nc1ccc(C(C)(C)C)cc1)C[C@H]1O[C@@H](n2ccc3c(N)ncnc32)[C@H](O)[C@@H]1O`, the “area under concentration-response curve” value came out at 537 with CU-ACC1, 656 in the test on CU-ACC2 and 578 in the test with NCI-H295R.
